From publication PMC3328449, “Inhibition of Diacylglycerol–Sensitive TRPC Channels by Synthetic and Natural Steroids” (PLoS ONE, 2012)

Target: T1, mTRPC4ß (Mus musculus, UniProt Q9QUQ5)
T1 construct: expressed in transfected cells
T1 sequence (Q9QUQ5 1-890 isoform Q9QUQ5-2): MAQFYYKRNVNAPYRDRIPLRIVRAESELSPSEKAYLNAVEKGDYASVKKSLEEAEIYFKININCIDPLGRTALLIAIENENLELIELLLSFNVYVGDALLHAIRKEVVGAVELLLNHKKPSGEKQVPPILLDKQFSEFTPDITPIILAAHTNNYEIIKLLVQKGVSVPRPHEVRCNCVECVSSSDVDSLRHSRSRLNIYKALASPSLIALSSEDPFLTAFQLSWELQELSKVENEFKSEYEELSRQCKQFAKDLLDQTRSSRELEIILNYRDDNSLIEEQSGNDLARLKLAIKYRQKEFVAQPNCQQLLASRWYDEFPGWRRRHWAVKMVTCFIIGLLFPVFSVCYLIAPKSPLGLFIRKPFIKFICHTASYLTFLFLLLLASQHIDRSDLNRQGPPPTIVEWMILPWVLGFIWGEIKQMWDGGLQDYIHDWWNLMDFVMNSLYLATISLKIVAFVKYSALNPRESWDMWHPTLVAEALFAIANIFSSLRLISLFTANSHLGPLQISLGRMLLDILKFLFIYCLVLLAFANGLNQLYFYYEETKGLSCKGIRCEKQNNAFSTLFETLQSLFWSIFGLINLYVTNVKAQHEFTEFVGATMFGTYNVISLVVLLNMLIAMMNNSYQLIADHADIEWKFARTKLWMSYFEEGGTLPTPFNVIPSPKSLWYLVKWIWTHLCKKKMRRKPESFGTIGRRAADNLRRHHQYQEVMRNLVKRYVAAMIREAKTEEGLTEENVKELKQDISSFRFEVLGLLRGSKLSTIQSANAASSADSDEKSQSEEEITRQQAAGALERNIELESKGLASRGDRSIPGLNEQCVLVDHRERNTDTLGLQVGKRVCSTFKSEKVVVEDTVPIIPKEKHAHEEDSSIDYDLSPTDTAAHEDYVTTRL
Experiment: Whole-cell patch clamp, TRPC4 currents
Format: cell-based
Conditions: 10 µM; not separable from current run-down
Description: Cells were grown at 37°C in a humidified atmosphere (5% or 7% CO2) under standard cell culture conditions. Stable human embryonic kidney (HEK) cell lines expressing recombinant mTRPC4ß (GenBank accession number AAC05178); mTRPC5 (GenBank accession number NM_009428) or hTRPC6 (GenBank accession number AF080394) under the control of a tetracycline-inducible promoter were generated using the Flp-In T-Rex (FITR) system (Invitrogen, Karlsruhe, Germany). TRPC4/5/6 HEK-FITR cells were maintained in Dulbecco's modified eagle medium (DMEM, with glutaMAX I, 4.5 g/l glucose and […] sodium pyruvate) supplemented with 10% (v/v) fetal bovine serum (Biochrom, Berlin, Germany), 1 mM glutamine, 1 mM MEM sodium pyruvate, 40 µg/ml hygromycin (50 µg/ml for mTRPC5 HEK-FITR cells), and 15 µg/ml blasticidine HCl. Channel expression was induced by supplementing the growth medium for 18–24 h with 1 µg/ml doxycycline.
The whole-cell patch clamp technique was employed to measure ion currents from single cells. […]
Cells grown on poly-L-lysine-coated coverslips were continuously superfused with extracellular solution and substances were applied using an ALA BPS-8 perfusion system (ALA Scientific Instruments, Westbury, USA). […] Cells were held at −70 mV, and current-voltage (I–V) relationships were routinely measured every 2 or 3 s by applying voltage ramps (180 ms) from −100 mV to +80 mV. […]

Effect on TRPC4 currents: apparently small, irreversible
SMILES: C#C[C@]1(OC(C)=O)CC[C@H]2[C@@H]3CCC4=CC(=NO)CC[C@@H]4[C@H]3CC[C@@]21CC (mixture of isomers) [norgestimate]
